Source: patent US20250171437A1 (Agios Pharmaceuticals,Inc., priority 2022, published 2025)

Target: T1, human PAH with the R408W mutation (A375 R408W cells) (Homo sapiens, UniProt P00439, R408W)
T1 construct: expressed in transfected cells
T1 sequence (P00439 1-452 R408W): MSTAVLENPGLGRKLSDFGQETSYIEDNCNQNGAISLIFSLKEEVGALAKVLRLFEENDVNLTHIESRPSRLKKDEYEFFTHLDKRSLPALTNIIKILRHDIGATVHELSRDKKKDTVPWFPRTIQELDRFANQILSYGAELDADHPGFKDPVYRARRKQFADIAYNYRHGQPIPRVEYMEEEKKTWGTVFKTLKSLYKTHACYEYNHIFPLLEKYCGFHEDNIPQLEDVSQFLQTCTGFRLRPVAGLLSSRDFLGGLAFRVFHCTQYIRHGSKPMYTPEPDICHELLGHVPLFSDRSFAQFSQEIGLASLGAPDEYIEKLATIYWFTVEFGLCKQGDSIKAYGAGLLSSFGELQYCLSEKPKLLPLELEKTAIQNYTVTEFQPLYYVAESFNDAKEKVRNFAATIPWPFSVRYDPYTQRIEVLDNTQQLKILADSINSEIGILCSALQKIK
Experiment: Cell Based Phenylalanine Flux Assay
Conditions: A375 R408W cells; 24 hrs with compound, then 20 μM sepiapterin and 800 μM 13C9,15N-Phenylalanine for 4 hours; 13C-Tyrosine by LC-MS; average where tested multiple times
Outline: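 Puromycin-selected A375 line, lentiviral hPAH R408W; cmpd 24 h, 37 °C, 5% CO2, 0.5% DMSO; then 20 μM sepiapterin + 800 μM 13C9,15N-Phe, 4 h; media extracted in 80% MeCN; 13C-Tyr by LC-MS; AC50 from 10-pt curves.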

| SMILES | AC50 |
| --- | --- |
| CC(C)(O)c1nc(C(F)F)c(C(=O)N2CCc3[nH]cnc3[C@@H]2c2nc3cc(Cl)ccc3o2)o1 [Example 376, (R)-(4-(5-chlorobenzo[d]oxazol-2-yl)-6,7-dihydro-1H-imidazo[4,5-c]pyridin-5(4H)-yl)(4-(difluoromethyl)-2-(2-hydroxypropan-2-yl)oxazol-5-yl)methanone] | 1000 to 5000 nM |
| O=C(c1ocnc1C(F)F)N1CCc2[nH]cnc2[C@@H]1c1nc2cc(Cl)ccc2o1 [Example 377, (R)-(4-(5-chlorobenzo[d]oxazol-2-yl)-6,7-dihydro-1H-imidazo[4,5-c]pyridin-5(4H)-yl)(4-(difluoromethyl)oxazol-5-yl)methanone] | 500 to 1000 nM |
| O=C(c1ocnc1C(F)F)N1CCc2[nH]cnc2[C@H]1c1nc2cc(Cl)ccc2o1 [Example 378, (S)-(4-(5-chlorobenzo[d]oxazol-2-yl)-6,7-dihydro-1H-imidazo[4,5-c]pyridin-5(4H)-yl)(4-(difluoromethyl)oxazol-5-yl)methanone] | ≤ 500 nM |
| Cn1cc(-c2ccc3c(C(=O)N4CCc5[nH]cnc5[C@H]4c4nc5cccc(F)c5o4)cnn3c2)cn1 [Example 383, (S)-(4-(7-fluorobenzo[d]oxazol-2-yl)-6,7-dihydro-1H-imidazo[4,5-c]pyridin-5(4H)-yl)(6-(1-methyl-1H-pyrazol-4-yl)pyrazolo[1,5-a]pyridin-3-yl)methanone] | ≤ 500 nM |
| O=C(CCc1nccs1)N1CCc2[nH]cnc2[C@H]1c1nc2cccc(F)c2o1 [Example 385, 1-[(4S)-4-(7-fluoro-1,3-benzoxazol-2-yl)-1,4,6,7-tetrahydroimidazo[4,5-c]pyridin-5-yl]-3-thiazol-2-yl-propan-1-one] | ≤ 500 nM |
| O=C(CCc1nccs1)N1CCc2[nH]cnc2[C@@H]1c1nc2cccc(F)c2o1 [Example 386, 1-[(4R)-4-(7-fluoro-1,3-benzoxazol-2-yl)-1,4,6,7-tetrahydroimidazo[4,5-c]pyridin-5-yl]-3-thiazol-2-yl-propan-1-one] | ≥ 5000 nM |
| O=C(CCc1ncco1)N1CCc2[nH]cnc2[C@H]1c1nc2cccc(F)c2o1 [Example 387, (S)-1-(4-(7-fluorobenzo[d]oxazol-2-yl)-6,7-dihydro-1H-imidazo[4,5-c]pyridin-5(4H)-yl)-3-(oxazol-2-yl)propan-1-one] | 500 to 1000 nM |

Other lines, results leading:

| AC50 | SMILES |
| --- | --- |
| ≤ 500 nM | Cn1ccc(-c2nnc(C(=O)N3CCc4[nH]cnc4[C@H]3c3nc4c(F)cccc4o3)o2)n1 [Example 379, (S)-(4-(4-fluorobenzo[d]oxazol-2-yl)-1,4,6,7-tetrahydro-5H-imidazo[4,5-c]pyridin-5-yl)(5-(1-methyl-1H-pyrazol-3-yl)-1,3,4-oxadiazol-2-yl)methanone] |
| 500 to 1000 nM | Cn1ccc(-c2nnc(C(=O)N3CCc4[nH]cnc4[C@@H]3c3nc4c(F)cccc4o3)o2)n1 [Example 380, (R)-(4-(4-fluorobenzo[d]oxazol-2-yl)-1,4,6,7-tetrahydro-5H-imidazo[4,5-c]pyridin-5-yl)(5-(1-methyl-1H-pyrazol-3-yl)-1,3,4-oxadiazol-2-yl)methanone] |
| 1000 to 5000 nM | Cc1cccc2oc([C@H]3c4nc[nH]c4CCN3C(=O)c3ocnc3C(F)F)nc12 [Example 381, (R)-(4-(difluoromethyl)oxazol-5-yl)(4-(4-methylbenzo[d]oxazol-2-yl)-6,7-dihydro-1H-imidazo[4,5-c]pyridin-5(4H)-yl)methanone] |
| ≤ 500 nM | Cc1cccc2oc([C@@H]3c4nc[nH]c4CCN3C(=O)c3ocnc3C(F)F)nc12 [Example 382, (S)-(4-(difluoromethyl)oxazol-5-yl)(4-(4-methylbenzo[d]oxazol-2-yl)-6,7-dihydro-1H-imidazo[4,5-c]pyridin-5(4H)-yl)methanone] |
| 1000 to 5000 nM | Cn1cc(-c2ccc3c(C(=O)N4CCc5[nH]cnc5[C@@H]4c4nc5cccc(F)c5o4)cnn3c2)cn1 [Example 384, (R)-(4-(7-fluorobenzo[d]oxazol-2-yl)-6,7-dihydro-1H-imidazo[4,5-c]pyridin-5(4H)-yl)(6-(1-methyl-1H-pyrazol-4-yl)pyrazolo[1,5-a]pyridin-3-yl)methanone] |
